Tests used:
Human STING = Human STING (Homo sapiens (Human), UniProt Q86WV6, H232R); test: Human STING TR-FRET assay; format: binding; settings: human STING residues 140-379 (H232R), 100 nM; fluorescein labeled ligand 100 nM; 60 minutes at rt
Protocol: Human STING (accession number GB:BC047779) DNA encoding residues 140-379 (H232R) was cloned into pET28 as N-terminal HIS and C-terminal Avi tagged fusion protein, and a rTEV cleavage site between HIS tag and STING. The sequence was verified before recombinant protein expression using E. coli expression system.
For expression, STING expression vector was transformed into BL21(DE3) cells. The expression was induced by adding IPTG and expressing in 16° C. for 20 hours.
For purification, STING was purified by Nickel affinity resin (Thermo Scientific #25215), followed by TEV enzyme cleavage and Superdex 200 column (GE Healthcare #28-9893-35) purification. For site directed in vitro biotinylation, purified Avi-tagged STING protein was incubated with Biotin (SUPELCO #47868), ATP (SIGMA #A-7699) and BirA enzyme, followed by further purification through a Superdex 200 column (GE Healthcare #28-9893-35). Biotinylation was confirmed by Mass Spectrometry analysis.
40 nL of test compounds in DMSO were added to wells in a white, 384 well microtitre plate (Greiner 784075). 2 uL STING assay buffer (PBS and 0.01% BSA) containing fluorescein labeled ligand (c[G(2′,5′)p-2′-Fluo-AHC-A(3′,5′)p]-Biolog C 195, 100 nM final) and Tb labeled Streptavidin (Streptavidin-Tb cryptate-CisBio 610SATLB) were added. Then 2 uL STING assay buffer containing STING protein (100 nM final) was added and the mixture was incubated at rt for 60 minutes. The plates were then read on a BMG PheraStar Plus reader (LanthaScreen module).
(§1) For the assay method described above, test compound percent inhibition, at various concentrations, was calculated relative to untreated and DMSO only treated samples. Compound concentration versus percent inhibition curves were fitted to generate IC50 values. One skilled in the art will appreciate that the values generated either as percentage inhibition at a single concentration or IC50 values are subject to experimental variation.

[1] = tested on: THP1-Dual cells (Lucia luciferase under ISG54 promoter); test: THP-1 Dual Lucia reporter gene assay; format: cell-based, human; settings: Homo sapiens, THP1-Dual, 20 h, luminescence signal induction, 20 hours at 37° C.
Protocol: THP1-Dual™ cells (InvivoGen #thpd-nfis) were derived from the human THP-1 monocyte cell line by stable integration of the Lucia luciferase gene, a secreted luciferase reporter gene, under the control of an ISG54 (interferon-stimulated gene) minimal promoter in conjunction with five interferon (IFN)-stimulated response elements. On the day of experiment, the cells were plated to a black, 384-well plate (Corning 356697) at 7500 cells/25 μl per well density in growth media (RPMI 1640, 2 mM L-glutamine, 25 mM HEPES, 10% heat-inactivated fetal bovine serum, 100 μg/mL Normocin™, 50 U/mL-50 μg/mL Pen-Strep, 10 μg/mL of blasticidin, and 100 μg/mL of Zeocin). The cell plates were dosed with 62.5 nL of the testing compounds, and then incubated at 37° C. for 20 hours. At the end of the incubation, 15 μL/well of the QUANTI-Luc™ (InvivoGen #rep-qlc1) were added, and luminescence was measured immediately using the LeadSeeker.
as §1, with “luminescence signal induction,” for “inhibition,”, “signal induction” for “inhibition”, “EC50” for “IC50”, “generated” for “generated either”, “EC50” for “percentage inhibition at a single concentration or IC50”

Human STING, sequence (Q86WV6 140-379 H232R): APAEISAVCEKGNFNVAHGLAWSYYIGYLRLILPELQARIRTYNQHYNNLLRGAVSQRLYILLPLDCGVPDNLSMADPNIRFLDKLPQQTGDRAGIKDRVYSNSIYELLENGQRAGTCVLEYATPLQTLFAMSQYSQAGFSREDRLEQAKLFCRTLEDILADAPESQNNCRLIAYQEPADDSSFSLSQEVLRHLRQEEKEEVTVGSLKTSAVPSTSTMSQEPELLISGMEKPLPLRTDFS

How did the IC50 (Human STING) turn out when Nc1nc2c(ncn2[C@@H]2O[C@@H]3COP(=O)(O)O[C@H]4[C@@H](F)[C@H](n5cnc6c(N)ncnc65)O[C@@H]4CNS(=O)(=O)O[C@@H]2C3)c(=O)[nH]1 [Compound I-18, 2-amino-9-[(5S,7R,8R,12aR,14R,15R,15aR)-14-(6-amino-9H-purin-9-yl)-15-fluoro-2-hydroxy-2,10,10-trioxidodecahydro-5,8-methanofuro[2,3-m][1,3,6,9,10,11,2]tetraoxathiazaphosphacyclotetradecin-7-yl]-1,9-dihydro-6H-purin-6-one] was run?
Its IC50 is under 1 µM.

And the EC50 [1]?
The EC50 was 1 to 10 µM.

— patent US20250262298A1, “STING MODULATOR COMPOUNDS WITH SULFAMATE LINKAGES, AND METHODS OF MAKING AND USING” (TAKEDA PHARMACEUTICAL COMPANY LIMITED, priority 2018, published 2025)
